Test results taken from patent publication US12528840B2, “Transcription active complex targeting cancer drug from viral protein sequence” (The Regents of the University of California, priority 2020, dated 2026).

Tests used:
human CD3 T cells = experiment: CD3 T cell proliferation after anti-CD3/28 stimulation, flow cytometry; type: cell-based; details: 32 μM, 24 hours after 16 hours anti-CD3/28
Experimental: To evaluate the effect of the peptide on human CD3 T cells, CD3 T cells were enriched by magnetic beads (CD3 positive selection beads, Stemcell technology) from PBMC samples from 5 healthy donors and stimulated with anti-CD3/28 tetramer (Stemcell technology) in triplicates for 16 hours before treating with PBS, MBK50 (32 μM) and Mutant peptide (32 μM) for 24 hours. Activated proliferating IRF4^+Ki67^+ CD3 T cells (red square in FIG. 5) in the culture were analyzed by live/dead-red staining (Invitrogen) and intracellular staining with anti-Ki67-FITC (Biolegend) and anti-IRF4-APC (Biolegend) antibodies. A representative flow cytometry profiles are shown in FIG. 5(a) for gating live CD3 T cell population and FIG. 5(b) Ki67 vs IRF4 for the gated live CD3 T cells. For FIG. 5(c-e), the means of triplicate cultures in each experiment for live cells % (c, n=5), total CD3 T cell numbers (d, n=5), and % of Ki67^+ cells (e, n=3) are shown in the top panel. The bottom panel are normalized data to PBS control cultures. P values calculated with Prism using one-way ANOVA with paired comparison. p<0.05 statistically significant.

IRF4 = experiment: Intracellular staining of IRF4 in LPS-activated THP-1 cells; type: cell-based; details: THP-1, LPS 100 ng/ml, 16 μM, 24 hours
Text: FIG. 16. Effect of MBK50 on MYC and IRF4 expression in LPS-activated monocytic leukemia cell line THP-1 cells. […] MYC and IRF4 expression levels were examined by intracellular staining of MYC and IRF4 with isotype control staining followed by flow cytometry. FIG. 16(a) A scheme of the experimental procedure. FIG. 16(b) A representative histogram overlay for the MYC expression in THP-1 cells treated with MBK50, mutant control peptide or PBS, with isotype control. The average mean fluorescent intensity (MFI) for MYC expression (n=3) for each treatment is shown in the right panel. FIG. 16(c) A representative histogram overlay for the IRF4 expression (red) in THP-1 cells treated with MBK50, mutant control peptide, or PBS, with isotype control (blue). The average MFI for IRF4 expression for each treatment is shown in the right panel.
MYC is important for monocytic cell proliferation, especially upon LPS stimulation. […] MYC and IRF4 expression levels were examined by intracellular staining of MYC and IRF4 with isotype control staining followed by flow cytometry (FIG. 16a). […] Also, the percentage of THP-1 cells with reduced IRF4 expression was increased by MBK50 treatment compared to mutant control peptide or PBS treatment.

SWI/SNF components = experiment: ELISA-based binding assay with purified SWI/SNF components; details: biotin-conjugated peptide, HRP-streptavidin detection
Text: FIG. 17(a) SDS-PAGE analysis of five SWI/SNF components individually prepared from baculovirus infected Sf9 cells. FIG. 17(b) A schematic illustration of ELISA assay to evaluate VGN50 and SWI/SNF interaction. FIG. 17(c) Analysis of VGN50 binding to SWI/SNF components by ELISA. Peptide binding measured as OD values at 450 nm are shown. Mean OD values were compared between the VGN50 and Mut-P in each concentration using unpaired t-test. **p<0.01, *p<0.05, NS: no significance. Data are presented as mean±SD.
To confirm the basis of VGN50 (a.k.a. MBK50) mechanism of action, the biochemical interaction between VGN50 and SWI/SNF proteins (i.e., VGN50 target molecules), were examined by ELISA-based binding assays using purified 5 individual SWI/SNF components prepared from baculovirus-infected Sf9 cells (FIG. 17a). Increasing concentrations of biotin-conjugated VGN50 or Mut-P were incubated in an ELISA plate coated with each SWI/SNF component, and the bound peptides were detected by HRP-streptavidin (FIG. 17b).

B cells = experiment: B cell expansion in U-bottom plate upon sCD40L or ODN 2006 stimulation; type: cell-based; details: 32 μM
Experimental: B cells were prepared by magnetic beads from healthy donor PBMC (n=2). Representative pictures of B cell culture in a 96 well U-bottom plate in the presence of sCD40L (T cell dependent stimulation) or ODN 2006 (TLR9 ligand)(T cell independent stimulation) at indicated concentration without or with MBK50 (16, 32 μM) or mutant peptide (32 μM). The radius of cell volume in each well roughly correlate to the total cell numbers.

[1] = test system: human peripheral blood mononuclear cells (PBMCs); experiment: Viability by flow cytometry after live/dead staining, PBMC versus cancer cell lines; type: cell-based; details: healthy donor PBMCs vs e.g. THP-1 and BCBL-1
Experimental: FIG. 6. Viral and cellular responses to K-Rta peptide; identification of VGN50. (a) Protein sequence alignment. FIG. 6(A) The effect of VGN50 on various cancer cell types. MTT assays were performed with the indicated cell lines treated with various VGN50 concentrations. The O.D. of mock-treated samples were set as 100%, and O.D. from detergent treated cells were set as 0%. Percentage viability+/−SD was calculated for each treatment (N=3 samples/treatment). FIG. 6(B) Viability assay with flow cytometry. Cell viability was measured in triplicate with live/dead staining and the cell killing effects on cancer cells was compared with normal peripheral blood mononuclear cells (PBMC) from three healthy donors. Results are presented as percentage viability+/−SD deviation (N=3 samples/group).
As shown in FIG. 6(a), multiple cancer cell lines were used for MTT assay to evaluate cancer cell killing efficacies of the MBK50 peptide at different concentrations (cell variability studies). […] Importantly, human peripheral blood mononuclear cells (PBMCs) from healthy donors were approximately 10-fold less sensitive to MBK-mediated killing compared to myeloid and lymphoid cancer cell lines (e.g., THP-1 and BCBL-1) as assessed by flow cytometry after live/dead staining (FIG. 6(b)). […]

activated CD3 T cells = experiment: Cytokine production by anti-CD3 stimulated PBMCs (Luminex 10 plex); type: cell-based, human; details: 32 μM, 48 hours, vs untreated and control peptide-treated cultures
Experimental: The effect of the peptide on cytokine production by human lymphoctyes were studied by an in vitro culture system. PBMCs were stimulated with anti-CD3 antibody in the presence of PBS, MBK50 (32 μM) or Mutant peptide (32 μM) in duplicates for 48 hours. The supernatant was recovered and assayed for 10 common cytokines 4-1(3, IL-2, IL-4, IL-5, IL-6, IL-8, IL-10, GM-CSF, IFNγ, TNFα) with Luminex using human 10 plex beads assay kit (Invitrogen).

Question: LSSILQGLYQLDT [MBK50] was tested. Which “effect on activated proliferating CD3 T cells” value (human CD3 T cells) did it give?
Answer: preferentially targets actively dividing cells

Question: And the “percentage of THP-1 cells with reduced IRF4 expression” value (IRF4)?
Answer: increased

Question: And the “lowest concentration at which peptide bound the 5 SWI/SNF components” value (SWI/SNF components)?
Answer: 50 nM

Question: And the “cell volume in well (correlates to total cell numbers)” value (B cells; donor #46)?
Answer: significantly reduced

Question: And the “cell volume in well (correlates to total cell numbers)” value (B cells; donor #47)?
Answer: less so

Question: And the “lower sensitivity of PBMCs to killing compared to myeloid and lymphoid cancer cell lines” value [1]?
Answer: approximately 10 fold

Question: And the “cytokine levels in supernatant, all detected except IL-10 and TNFα” value (activated CD3 T cells)?
Answer: significantly reduced
